{
  "source": "patent US6391911B1",
  "about": "“Coadministration of lucanthone and radiation for treatment of cancer” (priority 1999, dated 2002)",
  "key": {"[1]": {"assay": "Tissue distribution of ^3H lucanthone in tumor-bearing mice", "type": "in vivo, C3H-HeHa mice", "description": "Ten six-week-old 18-20 gram female C3H-HeHa mice obtained from West Seneca Laboratories (West Seneca, N.Y.) were injected subcutaneously in the right nipple line with 1.4×10^6 viable C3H-BA mammary adenocarcinoma cells. With such inocula, 1-2-mm tumors were detectable within 3 days. If allowed to grow, they killed the mice in 36-38 days. This highly invasive tumor could grow rapidly from inocula as low as 10^4 cells.\nIn order to minimize the influence of tumor size on drug distribution, drug was administered at various times during the course of tumor growth. Each day, from the seventh to eleventh day after injection, two mice were injected intraperitoneally with 1.27 mg^3 H lucanthone methanesulfonate. Lucanthone methanesulfonate, after being labeled by tritium exchange of hydrogen, was 96%-99% pure by thin layer chromatography. Before injection in mice, the specific radioactivity of ^3H lucanthone, originally 135 MBq/mg, was reduced to 67.5 MBq/mg by dilution with unlabeled lucanthone methanesulfonate. The total dose of radioactivity was 8.74 MBq (236 μCi) in 0.44 ml. All mice were sacrificed on the twelfth day, at which time the tumors were all approximately the same size, 7-12 mm in greatest diameter.\nDistribution of tritium-labeled material in tissues represents lucanthone and its metabolites. Following sacrifice by cervical dislocation, the wet weight of samples of various organ or tumor tissue was determined immediately. Samples (about 50 mg each) were placed in glass scintillation vials with metal foil-lined caps. An alkaline tissue solubilizer, Protosol (DuPont—NEN), was added for digestion; radioactivity was determined by liquid scintillation techniques, as recommended by the manufacturer. Quench corrections were made for each sample to avoid interference from colored substances in individual samples. Hair was shaved from the skin samples to avoid its contribution to the weight of the sample."}, "[2]": {"details": "systemic chemotherapy; cited from earlier work"}, "[3]": {"assay": "Tolerability in human clinical studies", "type": "in vivo", "description": "Cancer patients were administered lucanthone hydrochloride in a total dose of 10 mg/Kg per day. The patients were given the drug in three divided doses in order to maintain blood and tissue levels. […] Lucanthone hydrochloride 250 mg tablets for clinical use [GRH/0/1581] were a gift of the Wellcome Foundation. Nausea and other side effects were not observed when patients received 10 mg/Kg.\nStandard whole brain radiation, 30 Gy with an 8 MeV linear accelerator in ten equal doses over 2 weeks, was given in conjunction with lucanthone at 10 mg/Kg in three doses/day. Patients were assigned to radiation alone or radiation and lucanthone from a table of random numbers. Tumor sizes for each patient were determined before and after therapy independently by two neuroradiologists who had no knowledge of the protocol assignments.\nBoth treatments were omitted on weekends and were stopped after ten treatment days. […] No other chemotherapy was given during this time, except steroids, which is standard treatment with patients with brain metastases."}, "[4]": {"assay": "Gamma camera imaging of radiolabeled rat models", "type": "in vivo", "details": "rats; intravenous radiotracer; pinhole collimator", "description": "Rats were injected with ^125I-labeled lucanthone and ^99mTc-pertechnetate. Lucanthone hydrochloride used for ^125I labeling was 97.5% pure by HPLC mass spectroscopy (Sterling Winthrop Research Institute, R009CJ). ^125I labeled lucanthone was prepared by a modification of the chloramine T method, to be described in detail in a separate publication [Moran JK, Li Y, Deng HF, Labeling and biodistribution of lucanthone (in preparation)]. The product identity was confirmed by thin layer chromatography. ^99mTc-pertechnetate was obtained from a conventional laboratory supplier. The image acquisitions were performed using a Picker Dyna Camera 4C using Nuclear MAC imaging software running on a Power MAC 8100/80 AV computer. Images were obtained using a pinhole collimator with a collimator to rat distance of 6.5 cm.\nEach animal was imaged using ^99mTc-pertechnetate (3.7 MBq). […] Therefore, a photopenic area in the image corresponds to the location of the rat brain.\nTwenty-four hours following administration of ^99mTc-pertechnetate, ^125I lucanthone was administered to each test animal. Images were acquired in the left lateral position every 10 min after intravenous administration of 1.1 MBq of ^125I lucanthone."}, "[5]": {"details": "reason for use as imaging control; cited from earlier work"}},
  "note": "Entries after “also recorded” stand apart in the source; their conditions may differ. Where a name gives a salt, the structure may show the parent alone. Starred links: 1 amine or outer side, 2 acyl side, 3 side chain; linkers in the order of their positions; H or OH if unused. Positions of bridges follow the written chain, without caps; N, C: chain ends. Non-standard residues stand in square brackets, D forms with d. Residues, ends and D or L forms follow the SMILES beside them. Chains are numbered I, II in the order given. Actinocin(9to1) = Cc1c2oc3c(C)ccc(C(=O)[*:1])c3nc-2c(C(=O)[*:2])c(N)c1=O; NMeV = CN[C@H](C(=O)O)C(C)C; Sar = CNCC(=O)O",
  "data": [
    {"compound": "CCN(CC)CCNc1ccc(C)c2sc3ccccc3c(=O)c12", "note": "[^3H lucanthone]", "values": [
      {"measurement": "^3H label in tumor tissue relative to skin and muscle", "setting": "[1]; first and second days following intraperitoneal drug injection, C3H-BA mammary adenocarcinoma", "value": "Enrichment of the ^3H label was detected in tumor tissue relative to skin and muscle"},
      {"measurement": "^3H lucanthone uptake and removal in brain, lung and spleen", "setting": "[1]; intraperitoneal injection", "value": "little difference"},
      {"measurement": "^3H label concentration in livers and kidneys compared with tumor", "setting": "[1]; intraperitoneal injection, principal excretory organs", "value": "higher concentrations were found than in the tumor"}
    ]},
    {"compound": "Cc1c2oc3c(C)ccc(C(=O)N[C@@H]4C(=O)N[C@H](C(C)C)C(=O)N5CCC[C@H]5C(=O)N(C)CC(=O)N(C)[C@@H](C(C)C)C(=O)O[C@@H]4C)c3nc-2c(C(=O)N[C@@H]2C(=O)N[C@H](C(C)C)C(=O)N3CCC[C@H]3C(=O)N(C)CC(=O)N(C)[C@@H](C(C)C)C(=O)O[C@@H]2C)c(N)c1=O", "note": "[actinomycin D] (I: T[dV]P[Sar][NMeV] / II: T[dV]P[Sar][NMeV]; ester I:1-I:C, II:1-II:C; linker I:N-II:N via Actinocin(9to1))", "values": [
      {"measurement": "Crossing of the blood-brain barrier", "setting": "[2]", "value": "fail to cross the blood-brain barrier in useful amounts"}
    ]},
    {"compound": "COc1cc([C@@H]2c3cc4c(cc3[C@@H](O[C@@H]3O[C@@H]5CO[C@@H](C)O[C@H]5[C@H](O)[C@H]3O)[C@H]3COC(=O)[C@H]23)OCO4)cc(OC)c1O", "note": "[etoposide]", "values": [
      {"measurement": "Crossing of the blood-brain barrier", "setting": "[2]", "value": "fail to cross the blood-brain barrier in useful amounts; also recorded: crosses the blood-brain barrier poorly"}
    ]},
    {"compound": "CCN(CC)CCNc1ccc(C)c2sc3ccccc3c(=O)c12", "note": "[lucanthone hydrochloride]", "values": [
      {"measurement": "Tolerability of total dose", "setting": "[3]; cancer patients, 10 mg/Kg per day in three divided doses", "value": "well tolerated"},
      {"measurement": "Nausea and other side effects", "setting": "[3]; patients received 10 mg/Kg", "value": "not observed"}
    ]},
    {"compound": "^99mTc-pertechnetate", "values": [
      {"measurement": "Photopenic area at the location of the brain in gamma camera scans", "setting": "[4]", "value": "show a photopenic area in the animal's head"},
      {"measurement": "Crossing of the blood-brain barrier (known property)", "setting": "[5]", "value": "known not to cross the blood-brain barrier"}
    ]}
  ]
}
